Square brackets hold non-standard residues; d marks the D form. Ends that are not written are not given here.
Legend:
mouse = test: Angiogenesis action in vivo examined by DAS assay (microcell embedded in the back of mouse); settings: for angiogenic activity / angiogenesis action (summary in words): DAS assay in mice; for Angiogenesis Magnitude (number of newly formed spiral blood vessels): peptide 10 μg/ml in DMEM injected into microcell in back of mouse, observed five days later; for formation of capillary / spiral blood vessels in tissue contacting the microcell (observation): peptide 10 μg/ml in DMEM; for formation of capillary / spiral blood vessels in tissue contacting the microcell (observation) / angiogenesis magnitude: microcell in back of mouse, five days; for angiogenesis magnitude: peptide-bound gelatin collagen I mixture solution 10 μg/ml
Procedure: A solution containing the peptide at a concentration of 10 μg/ml in DMEM (Dulbecco's modified Eagle medium) used as a cell culture medium was prepared.
The magnitude indicates the number of newly formed spiral blood vessels, and M0 means that the number is 0, M1 means 1 to 10, M2 means 11 to 20, M3 means 21 to 30, M4 means 31 to 40, M5 means 41 to 50 and M6 means 51 or more. Thus, the larger the magnitude M, the higher the angiogenic activity.
The AGP conjugate (prepared in Example 10) having a concentration of 100 μg/ml was dissolved in collagen I at a ratio of 1:10 to obtain a peptide-bound gelatin collagen mixture solution having a concentration of 10 μg/ml.

[1] = test system: transformed rat lung endothelial cells (TRLECs); test: Angiogenic action in three-dimensionally cultured vascular endothelial tissue (tube formation); assay type: cell-based
Procedure: Rat vascular endothelial cells were three-dimensionally cultured in the presence of AGP synthesized in Example 1. As the cells, transformed rat lung endothelial cells (TRLECs) were used. TRLECs were placed in a collagen I layer mixed with the peptide solution, which contained 10 μg/ml of AGP, and cultured in a carbon dioxide gas incubator for 14 days. Control experiments were carried out in the absence of a factor. And positive control experiments were performed in the presence of VEGF, which is known as a potent angiogenesis factor.
No tubes were detected in the control at all. […] It was observed that a plurality of microvilli were found on the inner surfaces of the tubes. […] Tight junction formation was observed where the endothelial cells were firmly bound. These observations indicate that the endothelial cells acquired polarity and formed tubes. The polarity means that a cell develops regions having different functions such as head and tail. No polarity is given to the endothelial cells when the endothelial cells are cultured in a usual way, and so no tubes are formed.
Rat vascular endothelial cells were three-dimensionally cultured in the presence of AGP-bound gelatin synthesized in Example 10. As the cells, transformed rat lung endothelial cells (TRLECs) were used. Peptide AGP-bound gelatin (conjugate) and collagen type I were mixed at a ratio of 1:10, and TRLECs were placed in a layer containing the conjugate-collagen mixture solution, having a final concentration of 10 μg (microgram/ml) and cultured in a carbon dioxide gas incubator for 14 days. Control experiments were carried out in the absence of a factor, and in the presence of VEGF known as an angiogenesis factor.
No tube formations were detected in the control at all. […] It was observed that a plurality of microvilli were formed on the inner surfaces of the tubes. […] Tight junction formation was observed where the endothelial cells were firmly bound. These observations indicate that the endothelial cells acquired polarity and formed tubes.

[2] = TRLECs in collagen I layer, 10 μg/ml of AGP, cultured 14 days, microscope

Substance | Angiogenesis Magnitude (number of newly formed spiral blood vessels) (mouse) | also measured
AGP4: AGP heptapeptide wherein the fourth amino acid tyrosine was substituted by alanine (SVVAGLR; Oligopeptide not having angiogenic activity) | M0 (M0 means that the number is 0) | angiogenic activity / angiogenesis action (summary in words) (mouse): angiogenesis action was lost; formation of capillary / spiral blood vessels in tissue contacting the microcell (observation) (mouse): not observed at all
AGP: heptapeptide (angiogenic peptide) having the amino acid sequence shown in SEQ ID NO: 1 (SVVYGLR; Oligopeptide having angiogenic activity) | M5 (M5 means 41 to 50) | tube-like structure formation by endothelial cells [1, 2]: arranged in the tube-like structure; lengths of the tubes formed, compared with VEGF ([1]; TRLECs in collagen I layer, 10 μg/ml, 14 days): significantly longer; angiogenic activity / angiogenesis action (summary in words) (mouse): strong (prominent) angiogenesis action; formation of capillary / spiral blood vessels in tissue contacting the microcell (observation) (mouse): a number of branched capillary blood vessels were formed; angiogenesis magnitude (mouse): M5 (M5 means 41 to 50)
GLR (Oligopeptide not having angiogenic activity) [compound 7] | M0 (M0 means that the number is 0) | 
GRGDSVVYGLR (Oligopeptide having angiogenic activity) [Example 16] |  | angiogenic activity / angiogenesis action (summary in words) (mouse): high angiogenic activities
SVV (Oligopeptide not having angiogenic activity) [compound 4] | M0 (M0 means that the number is 0) | 
SVV yGLR (SVV[dY]GLR) [Example 18] | M2 (M2 means 11 to 20) | 
SVVFGLR (Oligopeptide having angiogenic activity) [Example 12] | M6 (M6 means 51 or more) | angiogenic activity / angiogenesis action (summary in words) (mouse; listed as SEQ ID NO: 9): especially high angiogenic activity; angiogenic activity / angiogenesis action (summary in words) (mouse; listed as SEQ ID NO:9): higher angiogenic activity than the peptide having the amino acid sequence shown in SEQ ID NO: 1
SVVWGLR (Oligopeptide having angiogenic activity) [Example 19] | M3 (M3 means 21 to 30) | 
SVVY (Oligopeptide having angiogenic activity) [Example 21] | M1 (M1 means 1 to 10) | 
SVVYG (Oligopeptide having angiogenic activity) [Example 20] | M2 (M2 means 11 to 20) | 
SVVYGL (Oligopeptide having angiogenic activity) [Example 13] | M5 (M5 means 41 to 50) | 
SVVYGLRG (Oligopeptide having angiogenic activity) [Example 15] |  | angiogenic activity / angiogenesis action (summary in words) (mouse): high angiogenic activities
VEGF | M3 (M3 means 21 to 30) | tube-like structure formation by endothelial cells [1, 2]: arranged in the tube-like structure; tube-like structure formation by endothelial cells ([1]; TRLECs in conjugate-collagen type I mixture (1:10), final concentration 10 μg/ml, 14 days): arranged in the tube-like structure; angiogenesis magnitude (mouse): M3 (M3 means 21 to 30)
VVYGLR (Oligopeptide having angiogenic activity) [Example 14] | M5 (M5 means 41 to 50) | 
VYGLR (Oligopeptide not having angiogenic activity) [compound 5] | M0 (M0 means that the number is 0) | 
YGLR (Oligopeptide not having angiogenic activity) [compound 6] | M0 (M0 means that the number is 0) | 
